From patent US20230332103A1, “Methods and Compositions for Generating Human Forebrain Neural Progenitor Cells and for Maturation Thereof to Parvalbumin+ Interneurons” (Trailhead Biosystems Inc., priority 2021, published 2023)
Values joined by “and” are separate entries in the source; they are usually repeats but may differ in a detail not shown here. Equal values may be shown once. “Also recorded” adds a separate entry of the source. Where no end group is shown, it is not given here.

Columns and labels:
Assay type in all cases: cell-based, human
[1] = tested on: stage 4 neural stem cells; assay: HD-DoE 8-factor experiment for stage 5 recipe (Forskolin, Arachidonic acid, VPA, BDNF, BT13, O-LPA, GW7646, Sodium pyruvate), optimized for PVALB
Protocol: To further guide the differentiation of forebrain-committed neural stem cells to PVALB interneuron cells, an additional HD-DoE experiment was performed for 3 days on cells that were treated with stage 1 to stage 4 media for total of 12 days prior to start of the experiment. This experiment included 8 effectors, Forskolin, Arachidonic acid, VPA, BDNF, BT13, O-LPA, GW7646, and Sodium pyruvate. In this model, we focused on maximum expression of PVALB gene expressed in PVALB (+) interneurons (Nahar et al. (2021) Front. Psych. 12:679960). When the model was optimized for maximum expression of PVALB, Forskolin, GW7646, Sodium Pyruvate had the highest factor contributions, 3.14, 27.2, and 17.1 respectively (FIG. 25).
So, it was excluded in the recipe.

[2] = tested on: MGE progenitor cells; assay: HD-DoE 12-factor experiment for stage 4 recipe, optimized for MEF2C; conditions: for impact on expression of MEF2C: dynamic profile analysis, FIG. 20
From the text: These effectors are small molecules or proteins. They are commonly used during stepwise differentiation of stem cells to specific fates. The choice of the effectors was based on current literature on neural induction in forebrain region of developing brain and differentiation of stem cells to neural progenitors.
To evaluate the effectors, experiments with at least 8 factors were designed that can assess the response of cells to 48 or more different combinations of effectors in a range of concentrations. To analyze the models, we focused on expression of genes involved in development and patterning of the forebrain interneurons maturation including LHX6 (Yuan et al. (2018) Elife, 7:e37382), DLX5 (Wang et al. (2010) J. Neuroscience 30:5334-5345), ASCL1 (Shi et al. (2016) J. Biol. Chem. 291:13560-13570). At later stages we focused on interneuron maturation genes including Parvalbumin and absence of somatostatin (Horn and Nicoll (2018) Proc. Natl. Acad. Sci. 115:589-594). The impacts of each effector on gene expression level are defined by a parameter called factor contribution that is calculated for each effector during the modeling.
To identify the recipe of stage 4 of differentiation, 48 different combinations of effectors generated using Design-of-Experiments compression through D-optimality were robotically prepared. The effector combinations were prepared in a basal media and were subsequently added to the cells, which were then allowed to differentiate. Three days later RNA extraction was performed, and gene expression was obtained using quantitative PCR analysis. The data was normalized and modeled using partial least squares regression analysis to the effector design, resulting in the generation of gene-specific models, which after model tuning for maximal predictive power, provided explanation of the effectors ability to control the expression of individual genes, combinatorically, and individually. Solutions within the tested space could then be explored to address desirability. […] Valproic Acid can inhibit histone deaceylases and increase γ-aminobutyric acid (GABA). […] GDNF is the […] Glial cell line-derived neurotrophic factor and can activate the GDNF pathway.
To find the set of factors that have the potential to optimize MEF2C in this experiment, a new assessment was done through dynamic profile analysis with focus on maximal expression of MEF2C (FIG. 20).

[3] = tested on: forebrain-committed neural stem cells (stage 1 neural stem cells); assay: HD-DoE 12-factor experiment for stage 2 recipe, optimized for NKX2-1; conditions: model maximized for NKX2-1 / dynamic profile, FIG. 7 and 8
Protocol: To further guide the differentiation of forebrain-committed neural stem cells to ventral forebrain neural stem cells at stage 2, a HD-DoE experiment was performed for 3 days after termination of stage 1 treatment. At this time, we focused on maximum expression of NKX2-1 that is expressed in ventral forebrain region and minimum expression of PAX6 that is expressed in dorsal forebrain region. This 12-factor experiment included LDN193189, BMP7, PD0325901, MK2206, A8301, XAV939, CHIR99021, Purmorphamine, SANT-1, AGN193109, TTNPB and GSI-XX.

[4] = tested on: stage 4 neural stem cells; assay: HD-DoE 8-factor experiment for stage 5 recipe (Prostratin, Rosiglitazone, GSI-XX, Heparin, GW0742, N2, THI0019, GDNF), optimized for PVALB; conditions: for impact on expression of PVALB: dynamic profile analysis, FIG. 24; for factor contribution on expression of PVALB: positive, model optimized for maximum expression of PVALB, FIG. 23
Protocol: To investigate effect of other factors on differentiation of forebrain-committed neural stem cells to PVALB interneuron cells, an additional HD-DoE experiment was performed for 3 days on cells that were treated with stage 1 to stage 4 media for total of 12 days prior to start of the experiment. This experiment included eight effectors, Prostratin, Rosiglitazone, GSI-XX, Heparin, GW0742, N2, THI0019, and GDNF. In this model, we focused on maximum expression of PVALB gene expressed in PVALB (+) interneurons (Nahar et al. (2021) Front. Psych. 12:679960). When model was optimized for maximum expression of PVALB, Prostratin, GW0742, N2, and GDNF had the highest factor contributions, 13.56, 19.499, 15.9 and 8.2 respectively (FIG. 23).
So, they were excluded in the recipe.

[5] = tested on: stage 2 neural stem cells; assay: factor criticality analysis (dynamic profile analysis) of stage 3 recipe; parameters: unit not given here; conditions: other five factors present; for expression level of DLX1 when the effector is removed: 220 with all six factors; for expression level of LHX6 when the effector is removed: 240 with all six factors; for expression level of ASCL1 when the effector is removed: 1650 with all six factors
Protocol: To assess the impact of the elimination of each validated factor, dynamic profile analysis was used and compared the expression level of genes of interest in absence of each finalized factor while others are present. […] In the stage 3 recipe, each of the six finalized factors were removed while the other five factors remained present and the expression levels of ASCL1, DLX1 and LHX6 were assessed compared to the presence of all six factors. […] As expected, in the absence of IGF-1, the value of DLX1 increases to 410, however, ASCL1 and LHX6 decreased to 1390 and 220, respectively.

[6] = tested on: stage 2 neural stem cells (cells treated with stage 1 and stage 2 media); assay: HD-DoE experiment for stage 3 recipe, optimized for ASCL1; conditions: for factor contribution on expression of ASCL1: positive, model optimized for maximum expression of ASCL1 at 1700, FIG. 9
Protocol: To further guide the cells to medial ganglionic eminence progenitor fate, an additional HD-DoE experiment was performed for 3 days on cells that were treated with stage 1 and stage 2 media for total of 6 days prior to start of the experiment. This experiment included 13 effectors, LDN193189, A8301, GNF5837, AZD3147, GSI-XX, Takinib, PD0325901, PD173074, BLU9931, IGF-1, MHY1485, Purmorphamine and Prostratin. In this model, we focused on maximum expression of genes expressed in neuronal progenitor cells in medial ganglionic eminence (MGE) region including ASCL1, LHX6 and DLX1 (Silberberg et al. (2016) Neuron 92:59-74). When the model was optimized for maximum expression of ASCL1 at 1700, A8301, GSI-XX, Purmorphamine and Takinib, which is an inhibitor of TAK1 pathway, had the highest factor contributions, 18.1, 14.1, 12.7 and 10.1 respectively. […]

[7] = tested on: MGE progenitor cells; assay: factor criticality analysis of stage 4 recipe; conditions: FIG. 27
Protocol: (§1) To assess the impact of elimination of each validated factor, we again used dynamic profile analysis and compared the expression level of genes of interest in the absence of each finalized factor while others are present.
In the stage 4 recipe, each of five finalized factors were removed while the other four factors were present and expression levels of forebrain genes were assessed compared to the presence of all 5 factors. MEF2C was reported to determine the PVALB-precursors cell fate (Mayer et al. (2018) Nature 555:457-462). We optimize MEF2C expression at this stage. […] (FIG. 27).

[8] = tested on: stage 4 neural stem cells; assay: factor criticality analysis of stage 5 recipe
Protocol: as §1
In the stage 5 recipe, each of seven finalized factors were removed while other factors were kept present and expression levels of PVALB and SST were assessed compared to the presence of all seven factors. […] 2-phospho-L-ascorbic acid, BDNF, IGF-1 were included in the stage 5 recipe (FIG. 28). […] Others were also found to increase the expression of somatostatin that was SST interneuron marker. So, they are excluded from the recipe and N2 was included in the stage 5 recipe (FIG. 29). […] Sodium pyruvate was included in the stage 5 recipe (FIG. 30).

[9] = tested on: cells after termination of stage 4 treatment; assay: HD-DoE 8-factor experiment for stage 5 recipe (JQ1, Indolactam-V, Oleic acid, BDNF, IGF-1, 2-phospho-L-Ascorbic acid, Albumax, MK2206), optimized for PVALB
From the text: To further guide the differentiation of forebrain-committed neural stem cells to PVALB interneuron cells at stage 5, we performed a HD-DoE experiment for 3 days after termination of stage 4 treatment. At this time, we focused on maximum expression of PVALB that was expressed in Parvalbumin (+) interneurons and minimum expression of Somatostatin that is another type of interneurons. This 8-factor experiment included JQ1, Indolactam-V, Oleic acid, BDNF, IGF-1, 2-phospho-L-Ascorbic acid, Albumax, MK2206. […] Using dynamic profile analysis, we modified the model to achieve the maximum expression level of PVALB simultaneously and therefore 2-phospho-L-ascorbic acid, BDNF, IGF1 were included while MK2206, Albumax, and JQ1 are excluded (FIG. 22). Considering the model at different optimization settings for maximum differentiation of cells toward ventral forebrain, the recipe for stage 5 of differentiation included BDNF, IGF-1, 2-phospho-L-ascorbic acid from this HD-Doe experiment.

[10] = dynamic profile analysis, FIG. 10
[11] = positive impact, model optimized for maximal expression of MEF2C at 453, FIG. 19

CCN(CC)S(=O)(=O)c1ccc(OC)c(N2CCN(C(=O)c3ccc(F)cc3C(F)(F)F)CC2)c1 [BT13]
impact on expression of PVALB ([1]; dynamic profile analysis, FIG. 26): significant negative impact

C=C[C@@]1(C)CC(=O)[C@]2(O)[C@@]3(C)[C@@H](O)CCC(C)(C)[C@@H]3[C@H](O)[C@H](OC(C)=O)[C@@]2(C)O1 [Forskolin]
factor contribution on expression of PVALB ([1]; positive, model optimized for maximum expression of PVALB, FIG. 25): 3.14

C[C@H](NC(=O)Cc1cc(F)cc(F)c1)C(=O)N[C@@H]1C(=O)N(C)c2ccccc2-c2ccccc21 [GSI-XX]
impact on expression of MEF2C [2]: negative effect
factor contribution on expression of MEF2C ([2]; significant negative effect, model optimized for maximal expression of MEF2C): 11.6
impact on expression of NKX2-1 [3]: increase its expression level
impact on expression of PVALB [4]: negative impact
expression level of DLX1 when the effector is removed [5]: 50
expression level of LHX6 when the effector is removed [5]: 140
expression level of ASCL1 when the effector is removed [5]: 1200
impact on expression of ASCL1 [6, 10]: Positive impact
impact on expression of LHX6 [6, 10]: Positive impact
factor contribution on expression of ASCL1 [6]: 14.1 and 14

Cc1cc(SCc2sc(-c3ccc(C(F)(F)F)c(F)c3)nc2C)ccc1OCC(=O)O [GW0742]
factor contribution on expression of PVALB [4]: 19.499

O=[N+]([O-])c1ccc(Nc2nc(N3CCOCC3)nc(N3CCOCC3)n2)cc1 [MHY1458]
factor contribution on expression of MEF2C [2, 11]: 0.04
effect on PVALB expression [7]: increase PVALB expression
factor contribution on expression of ASCL1 [6]: below 2

CC(=O)O[C@@]12C[C@@H](C)[C@@]3(O)[C@@H](C=C(CO)C[C@]4(O)C(=O)C(C)=C[C@@H]34)[C@@H]1C2(C)C [Prostratin]
factor contribution on expression of PVALB [4]: 13.56

CCCC[C@@H](COC(=O)N(Cc1cccs1)Cc1cccs1)NC(=O)N[C@@H](CC(=O)OC)c1ccc2c(c1)OCO2 [THI0019]
impact on expression of PVALB [4]: negative impact

CCCC(CCC)C(=O)O [Valproic Acid, Valproic acid]
impact on expression of MEF2C [2]: positive impact
factor contribution on expression of MEF2C [2, 11]: 12
effect on PVALB expression [7]: contribute to PVALB expression
effect on somatostatin expression [7]: minimal increase

Heparin
impact on expression of PVALB [4]: negative impact

IGF-1: insulin-like growth factor 1, growth factor, IGF1 pathway agonist
impact on expression of MEF2C [2]: negative impact
expression level of DLX1 when the effector is removed [5]: 410
expression level of LHX6 when the effector is removed [5]: 220
expression level of ASCL1 when the effector is removed [5]: 1390
impact on expression of ASCL1 [6, 10]: positive effect
impact on expression of DLX1 [6, 10]: negative impact
impact on expression of LHX6 [6, 10]: positive effect
factor contribution on expression of ASCL1 [6]: 7
effect on expression of somatostatin ([8]; FIG. 28): did not change
contribution to expression of PVALB (Parvalbumin) ([8]; FIG. 28-30): positive contribution
factor contribution on expression of PVALB ([9]; important input for maximum expression of PVALB, FIG. 21): 12.8
impact on expression of PVALB ([9]; model maximized for PVALB / dynamic profile, FIG. 21 and 22): increase its expression level; also recorded: positive impact

Substance P: 11 amino acid neuropeptide, member of the tachykinin neuropeptide family (RPKPQQFFGLM; ends and bridges not checked; UniProt P20366 58-68, looked up)
impact on expression of MEF2C [2]: positive impact
factor contribution on expression of MEF2C [2, 11]: 9
effect on MEF2C expression [7]: increase
effect on somatostatin expression [7]: decrease

B1: GDNF: Glial cell line-derived neurotrophic factor, activates the GDNF pathway (protein, UniProt P39905 78-211, looked up)
Glial cell line-derived …: SPDKQMAVLPRRERNRQAAAANPENSRGKGRRGQRGKNRGCVLTAIHLNVTDLGLGYETKEELIFRYCSGSCDAAETTYDKILKNLSRNRRLVSDKVGQACCRPIAFDDDLSFLDDNLVYHILRKHSAKRCGCI
impact on expression of MEF2C [2]: positive impact
factor contribution on expression of MEF2C [2, 11]: 5
factor contribution on expression of PVALB [4]: 8.2
effect on PVALB expression [7]: contribute to PVALB expression
effect on somatostatin expression [7]: minimal increase
